Experimental data as given in US10072005B2, “4-azaindole derivatives” (EISAI R&D MANAGEMENT CO., LTD., priority 2013, dated 2018).

Experiments:
mAChR M5 = mAChR M5 (Homo sapiens (Human), UniProt P08912); test: In vitro cellular calcium flux assay, PAM, NAM and agonist modes, mAChR M5; type: cell-based
Experimental: Baby hamster kidney cells stably expressing human or rat mAChR M1 to M5 were utilised for primary and selectivity profiling activities. mAChR M2 and M4 cell lines also stably expressed the chimeric Gαqi5 G-protein.
Human mAChR M1, M3, M5 and rat M1 cells were grown in low glucose Dulbecco's Modified Eagle's Medium (DMEM) medium plus heat inactivated 10% fetal bovine serum (HI FBS) and 500 μg/ml hygromycin B^1. Human mAChR M2 and M4 cells were maintained as above with^2 the addition of 500 μg/ml G418 to the media. Cells were maintained in culture at 37° C./5% CO2 and passaged twice weekly by treatment with 0.05% Trypsin/EDTA detachment solution, centrifugation (200 g, 5 min) and re-suspension in fresh media. Following cell expansion, cells were cryopreserved at −80° C. by treatment with 0.05% Trypsin/EDTA detachment solution, centrifugation (200 g, 5 min) and re-suspension of the pellet in freezing media (90% HI FBS/10% DMSO^3) at 15E6 cells/ml^4.
Prior to assaying, cells were prepared by thawing at 37° C. in a water bath, centrifugation (200 g, 5 min) and re-suspension of the pellet in fresh media. 15000 cells per well were seeded in black, clear bottomed 384-well Greiner Bio-One plates in plating medium (DMEM/10% HI FBS) and incubated overnight at 37 C/5% CO2.
On the day of the assay, media was removed from each well and replaced with 50 μl^5 assay buffer (HBSS with 20 mM HEPES and 2.5 mM Probenecid) containing the calcium indicator, Calcium 4 (Molecular Devices). Cells were then incubated at 37° C./5% CO2 for 30 min and at room temperature.
Compound preparation was carried out by generation of 11-point, 1 in 3 serial dilution concentration response curves in 100% DMSO. Compound was then diluted 1 in 65^6 with assay buffer (HBSS with 20 mM HEPES and 2.5 mM Probenecid) prior to the addition of 10 ul^7 to the cells using a Tetra fluorometric imaging plate reader (Molecular Devices)^8. Compound driven increases in intracellular calcium flux was measured as an increase in fluorescence (494Ex, 516Em)^9.
Positive allosteric modulator pEC50 values and antagonist pIC50 values for each compound were then determined. […] The points of modification and the alternate reagents, concentrations or equipment employed in these examples were: ^1200 μg/ml hygromycin B; ^2G418 not added; ^3CELLBANKER 1; ^410E6; ^5 40 μl; ^6 1 in 99; ^7 20 μl; ^8FDSS6000 (Hamamatsu Photonics); ^9(480Ex, 540Em); ^10Spotfire (TIBCO).
Certain compounds were tested in PAM, NAM and agonist modes against mAChR M2, M3, M4 and M5.

male Long-Evans rats = test: Novel Object Recognition Test in Scopolamine-Induced Cognitive Deficit Condition; type: in vivo; settings: rat
Experimental: For 2 days before starting the test, 6-week old male Long-Evans rats were acclimated to experimental operations such as administration and a test device (that is, a black or gray plastic cage with a width of 40 cm, a depth of 30 cm and a height of 45 cm). Each test compound was dissolved in a 0.5% methylcellulose in water to be orally administered at dosage ranges between 0.01 and 0.1 mg/kg. Thirty minutes after the test compound administration, scopolamine hydrobromide dissolved in a saline was intraperitoneally administered at a 0.7 mg/kg dose, so as to induce cognitive impairment. After another 30 minutes, each rat was acclimated in the test device for 3 minutes, and thereafter, two blocks in the same shape were put in the test device as acquisition trial, and exploring time for each block was measured for 5 minutes. Two hours after the acquisition trial, the rat was acclimated in the test device for 3 minutes, and thereafter, the same block as those used in the acquisition trial and a new block in a different shape were put in the cage for retention trial. The exploring time for each block was measured for 3 minutes, and a ratio of the exploring time for the newly used block to the sum of the exploring times for the respective blocks was calculated as a discrimination index (novel object exploration time/total object exploration time in retention trial×100). […]
Each discrimination index was shown as an average and a standard error. The statistical significance between the vehicle group and the scopolamine alone group was analyzed by the independent t-test. The statistical significance between the scopolamine alone group and each sample group was analyzed by one-way analysis of variance and then by Dunnett's multiple comparison test. […]

mAChR M5, sequence (P08912 whole entry): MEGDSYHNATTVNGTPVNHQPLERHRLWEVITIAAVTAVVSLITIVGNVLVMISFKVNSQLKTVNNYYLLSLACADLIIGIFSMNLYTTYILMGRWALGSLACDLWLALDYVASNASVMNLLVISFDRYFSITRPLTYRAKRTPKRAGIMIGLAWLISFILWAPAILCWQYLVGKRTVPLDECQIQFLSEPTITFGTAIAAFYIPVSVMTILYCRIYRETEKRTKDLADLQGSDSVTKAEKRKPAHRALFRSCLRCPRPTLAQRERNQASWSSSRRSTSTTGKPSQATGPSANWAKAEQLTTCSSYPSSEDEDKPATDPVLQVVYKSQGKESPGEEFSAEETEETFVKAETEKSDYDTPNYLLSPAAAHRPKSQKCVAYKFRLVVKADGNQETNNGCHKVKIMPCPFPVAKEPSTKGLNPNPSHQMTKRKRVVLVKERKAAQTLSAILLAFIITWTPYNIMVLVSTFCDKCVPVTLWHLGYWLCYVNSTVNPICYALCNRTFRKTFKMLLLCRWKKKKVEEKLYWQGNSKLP

## O=C(N[C@H]1CCCC[C@@H]1O)c1cn(Cc2ccc(F)cc2)c2cccnc12 [Example 5, 1-(4-Fluorobenzyl)-N-((1S,2S)-2-hydroxycyclohexyl)-1H-pyrrolo[3,2-b]pyridine-3-carboxamide]
mAChR M5
  EC50: > 10 µM
Male Long-Evans rats; Scopolamine/0.01 mg/kg p.o.
  discrimination index [mean ± SEM]: [50.5 ± 4.3]
Male Long-Evans rats; Scopolamine/0.03 mg/kg p.o.
  discrimination index [mean ± SEM]: [61.7 ± 2.5]
Male Long-Evans rats; Scopolamine/0.1 mg/kg p.o.
  discrimination index [mean ± SEM]: [72.9 ± 2.6]###
